Measured values from PMC3601769 (Bioorganic & medicinal chemistry letters, 2013).

tested on: tubulin (colchicine site); experiment: Inhibition of colchicine binding to tubulin

Inhibition of colchicine binding (% inhibition ± SD) at 5 μM inhibitor, inactive:
Fc1ccccc1Nc1nc(-c2ccccc2)no1 [DCP 10500060]
CCOC(=O)c1cccc(Nc2nc(-c3ccc(OC)cc3)no2)c1 [DCP 10500035]
COc1ccc(OC)c(Nc2nc(-c3cccc(OC)c3OC)no2)c1 [DCP 10500070]
